From US9884806B2, “Cyclic vinylogous amides as bromodomain inhibitors” (ICAHN SCHOOL OF MEDICINE AT MOUNT SINAI, priority 2013, dated 2018)
Read-outs that look alike come from different tables or passages of the source.

Columns and labels:
[1] = target: T1, BRD4_2 (Homo sapiens, UniProt O60885); experiment: Fluorescence anisotropy binding assay (competition with FITC-labeled MS417 probe), BRD4_2; conditions: FITC-MS417 probe 80 nM, PBS pH 7.4, 1 hour, 25° C.
T1 construct: contains two tandem bromodomains (BrD1 and BrD2)

[2] = system: mRNA transcript levels of cytokines IL-6, IL-1β and TNFα in RAW264.7 cells; experiment: LPS-induced transcriptional activation of cytokines in murine macrophage cells (quantitative PCR); format: cell-based; conditions: Mus musculus
Protocol: LPS-Induced Transcriptional Activation of Cytokines in Murine Macrophage Cells RAW264.7 cells were cultivated with or without a treatment of the compounds as described above. Total RNA was isolated the cells using TRIzol reagent (Gibco, Grand Island, N.Y.) for homogenization. The concentration and integrity of RNA were determined by measuring absorbance at a 260 nm/280 nm ratio. Quantitative PCR was performed to determine the mRNA transcript levels of cytokines IL-6, IL-1β and TNFα with specific primers for these target genes. Each experiment was performed at least in triplicate, and plotted using Prim, and an IC50 value was calculated.

[3] = system: NO release in RAW264.7 cells; experiment: LPS-stimulated nitric oxide (NO) release in murine macrophage RAW264.7 cells (Griess reaction); format: cell-based; conditions: Mus musculus, read-out: IC50 in inhibition of LPS-induced NO release
Protocol: LPS-Stimulated Nitric Oxide (NO) Release in Murine Macrophage RAW264.7 Cells
RAW264.7 cells was cultivated in DMEM supplemented with 10% FBS at 37° C. in a humidified atmosphere of 5% CO2. Cells in 96-well plates (0.1 ml, 3×10^5 cells/ml) were treated with the test compounds. After 30 min, all supernatants were removed and cells were treated with LPS (1 μg/ml) and the test compounds. After 24 hours, the level of nitrite was measured using Griess reaction G2930 (Promega Corp., Madison, Wis.) [see Bredt and Snyder, Ann Rev Biochem 63, 175-195 (1994)]. The test compounds dissolved in DMSO were diluted with culture medium to concentrations from 0.28 to 50,000 nM. The final concentration of DMSO was adjusted to 0.05% (v/v). The nitrite production was measured by spectrophotometry at 520 nm using EnVison 2104 Multilabel Reader (PerkinElmer, Inc., Waltham, Mass.). Each experiment was performed at least in triplicate and plotted using Prism.

[4] = target: T2, first bromodomain (BrD1) of human BRD4 (Homo sapiens, UniProt O60885); experiment: Fluorescence anisotropy binding assay (competition with FITC-labeled MS417 probe); conditions: FITC-MS417 probe 80 nM, PBS pH 7.4, 1 hour, 25° C., read-out: BRD4_1 IC50
T2 construct: the first bromodomain (BrD1) of human BRD4; poly-His (cleaved yes); made in house
How it was run: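 BRD4 BrD1 (His tag removed by thrombin) at 0.25 to 1 μM competed against 80 nM FITC-labeled MS417 in PBS pH 7.4. Anisotropy read after 1 hour at 25° C. Ki derived from fitted IC50 by Nikolovska-Coleska-corrected Cheng-Prusoff equation, one-site competitive model.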

[5] = RAW264.7, read-out: IC50 in inhibition of transcriptional activation of the cytokines IL-6, IL-1β and TNFα
[6] = RAW264.7 cells, LPS, quantitative PCR of mRNA transcript levels, read-out: IC50 in inhibition of transcriptional activation of the cytokines IL-6, IL-1β and TNFα
[7] = RAW264.7 cells, LPS 1 μg/ml, 24 hours, nitrite by Griess reaction

| IC50 [1] [µM] | IC50 [4] [µM] | IC50 [3, 7] [µM] | melting point [°C] | SMILES | IC50 [2, 5] [µM] | IC50 ([3]; RAW264.7, 24 h) [µM] | IC50 [2, 6] [µM] |
| --- | --- | --- | --- | --- | --- | --- | --- |
| 1 to 10 | < 1 | 0.1 to 5 |  | CC1=C(Nc2ccc(C(=O)Nc3ccccc3C)cc2Cl)CCCC1=O [Example 05-15, 3-chloro-4-((2-methyl-3-oxocyclohex-1-en-1-yl)amino)-N-(o-tolyl)benzamide] |  |  | 0.1 to 5 |
| 1 to 10 | 1 to 10 | 0.1 to 5 |  | CC1=C(Nc2cc(C(=O)Nc3ccccc3C)ccc2Cl)CCCC1=O [Example 04-91, 4-chloro-3-((2-methyl-3-oxocyclohex-1-en-1-yl)amino)-N-(o-tolyl)benzamide] |  |  | 0.1 to 5 |
| 1 to 10 | < 1 | 0.1 to 5 |  | CC1=C(Nc2cccc(-c3cn(Cc4ccccc4)nn3)c2)CCC1=O [Example 06-04, 3-((3-(1-benzyl-1H-1,2,3-triazol-4-yl)phenyl)amino)-2-methylcyclopent-2-enone] |  |  | 0.1 to 5 |
| 1 to 10 | < 1 | 0.1 to 5 |  | COc1ccccc1NC(=O)c1ccc(NC2=C(C)C(=O)CC2)c(Cl)c1 [Example 04-17, 3-chloro-N-(2-methoxyphenyl)-4-((2-methyl-3-oxocyclopent-1-en-1-yl)amino)benzamide] |  |  | 0.1 to 5 |
| > 10 | > 10 | 0.1 to 5 | 232 to 235 | CC1=C(Nc2cc(C(=O)O)ccc2Cl)CCCC1=O [Example 01-36, 4-chloro-3((2-methyl-3-oxocyclohex-1-en-1-yl)amino)benzoic acid] |  |  | 0.1 to 5 |
| > 10 | 1 to 10 |  | 205 to 208 | CC1=C(Nc2cccc(NC(=O)C3CCCCC3)c2Cl)CCCC1=O [Example 05-51, N-(2-chloro-3-((2-methyl-3-oxocyclohex-1-en-1-yl)amino)phenyl)-cyclohexanecarboxamide] |  |  |  |
| 1 to 10 | 1 to 10 |  | 248 to 250 | CC1=C(Nc2ccc3ccccc3c2)CCC1=O [Example 01-27, 2-methyl-3-(naphthalen-2-ylamino)cyclopent-2-enone] |  |  |  |
| 1 to 10 | 1 to 10 |  | 156 to 158 | CC1=C(Nc2ccc(N)cc2Cl)CCCC1=O [Example 02-12, 3-((4-amino-2-chlorophenyl)amino)-2-methylcyclohex-2-enone] |  |  |  |
| 1 to 10 | < 1 |  | 160 to 162 | CC1=C(Nc2cc(NCc3cccc(F)c3C)ccc2Cl)CCCC1=O [Example 05-75, 3-((2-chloro-5-((3-fluoro-2-methylbenzyl)amino)phenyl)amino)-2-methylcyclohex-2-enone] |  |  |  |
| 1 to 10 | < 1 |  | 265 to 268 | CC(=O)Nc1ccc(Cl)c(NC2=C(C)C(=O)CC2)c1 [Example 01-42, N-(4-chloro-3-((2-methyl-3-oxocyclopent-1-en-1-yl)amino)phenyl)-acetamide] |  |  |  |
| > 10 | > 10 |  | 239 to 241 | CC1=C(Nc2ccc(C(=O)O)c(Cl)c2)CCC1=O [Example 01-10, 2-chloro-4((2-methyl-3-oxocyclopent-1-en-1-yl)amino)benzoic acid] |  |  |  |
| 1 to 10 | < 1 |  | 310 to 315 | CC1=C(Nc2ccc3[nH]c(C(=O)O)cc3c2)CCCC1=O [Example 01-64] |  |  |  |
| 1 to 10 | < 1 |  | 199 to 201 | CC1=C(Nc2cc(NC(=O)c3ccccc3C)ccc2Cl)CCCC1=O [Example 05-44, N-(4-chloro-3-((2-methyl-3-oxocyclohex-1-en-1-yl)amino)phenyl)-2-methylbenzamide] |  |  |  |
| 1 to 10 | 1 to 10 |  | 166 to 168 | CC1=C(Nc2cccc3ccccc23)CCC1=O [Example 01-26, 2-methyl-3-(naphthalen-1-ylamino)cyclopent-2-enone] |  |  |  |
| 1 to 10 | < 1 |  | 118 to 120 | CC1=C(Nc2cccc(NC(=O)c3ccccc3C)c2Cl)CCC1=O [Example 05-42, N-(2-chloro-3-((2-methyl-3-oxocyclopent-1-en-1-yl)amino)phenyl)-2-methylbenzamide] |  |  |  |
| 1 to 10 | < 1 |  | 192 to 195 | CC1=C(Nc2cc(NC(=O)C3CCCCC3)ccc2Cl)CCCC1=O [Example 05-45, N-(4-chloro-3-((2-methyl-3-oxocyclohex-1-en-1-yl)amino)phenyl)-cyclohexanecarboxamide] |  |  |  |
| 1 to 10 | 1 to 10 |  | 160 to 162 | CC1=C(Nc2ccc(NCCc3ccccc3C)cc2Cl)CCCC1=O [Example 05-77, 3-((2-chloro-4-((2-methylphenethyl)amino)phenyl)amino)-2-methyl-cyclohex-2-enone] |  |  |  |
| > 10 | 1 to 10 |  | 182 to 185 | CC1=C(Nc2cc(NC(=O)/C=C\C(=O)O)ccc2Cl)CCCC1=O [Example 05-83, (Z)-4-((4-chloro-3-((2-methyl-3-oxocyclohex-1-en-1-yl)amino)phenyl)-amino)-4-oxobut-2-enoic acid] |  |  |  |
| 1 to 10 | 1 to 10 |  | 213 to 215 | CC1=C(Nc2cc(NS(C)(=O)=O)ccc2Cl)CCC1=O [Example 05-53, N-(4-chloro-3-((2-methyl-3-oxocyclopent-1-en-1-yl)amino)-phenyl)-methanesulfonamide] |  |  |  |
| > 10 | 1 to 10 |  | 172 to 175 | CC1=C(Nc2cnc3ccccc3c2)CCCC1=O [Example 01-59, 2-methyl-3-[(quinolin-3-yl)amino]cyclohex-2-en-1-one] |  |  |  |
| 1 to 10 | 1 to 10 |  | 178 to 180 | COC(=O)c1ccc(NC2=C(C)C(=O)CC2)c(I)c1 [Example 01-43, methyl 3-iodo-4-((2-methyl-3-oxocyclopent-1-en-1-yl)amino)benzoate] |  |  |  |
| > 10 | 1 to 10 |  | 220 to 221 | CC1=C(Nc2ccc(NCc3ccccc3C)cc2Cl)CCCC1=O [Example 05-76, 3-((2-chloro-4-((2-methylbenzyl)amino)phenyl)amino)-2-methylcyclohex-2-enone] |  |  |  |
| 1 to 10 | 1 to 10 |  | 166 to 168 | CC1=C(Nc2cc(N)ccc2Cl)CCC1=O [Example 02-15, 3-((5-amino-2-chlorophenyl)amino)-2-methylcyclopent-2-en-1-one] |  |  |  |
| 1 to 10 | 1 to 10 |  | 155 to 158 | COC(=O)c1ccc(NC2=C(C)C(=O)CC2)c(Br)c1 [Example 01-22, methyl 3-bromo-4((2-methyl-3-oxocyclopent-1-en-1-yl)amino)benzoate] |  |  |  |
| > 10 | > 10 |  | 203 to 207 | CC1=C(Nc2cccc(CC(=O)O)c2)CCCC1=O [Example 01-37, 2-(3((2-methyl-3-oxocyclohex-1-en-1-yl)amino)phenyl)acetic acid] |  |  |  |

| SMILES | IC50 [1] [µM] | IC50 [4] [µM] | IC50 [3, 7] [µM] | melting point [°C] | IC50 [2, 5] [µM] | IC50 ([3]; RAW264.7, 24 h) [µM] | IC50 [2, 6] [µM] |
| --- | --- | --- | --- | --- | --- | --- | --- |
| CC1=C(Nc2ccc(C(=O)Nc3cccc4ccccc34)cc2Cl)CCC1=O [Example 04-15, 3-chloro-4-((2-methyl-3-oxocyclopent-1-en-1-yl)amino)-N-(naphthalen-1-yl)-benzamide] | 1 to 10 | < 1 |  |  | 0.1 to 5 | 0.1 to 5 |  |
| COc1ccc(NC(=O)Cc2cccc(NC3=C(C)C(=O)CCC3)c2)cc1 [Example 04-98, N-(4-methoxyphenyl)-2-(3-((2-methyl-3-oxocyclohex-1-en-1-yl)amino)phenyl)-acetamide] | > 10 | > 10 |  |  | 0.1 to 5 | 0.1 to 5 |  |
| CC1=C(Nc2cc(C(=O)Nc3ccccc3C)ccc2Cl)CCC1=O [Example 04-89, 4-chloro-3-((2-methyl-3-oxocyclopent-1-en-1-yl)amino)-N-(o-tolyl)benzamide] | 1 to 10 | < 1 |  |  | 0.1 to 5 | 0.1 to 5 |  |
